{"source": "ChEMBL document CHEMBL4808216", "about": "“Gut-Restricted Selective Cyclooxygenase-2 (COX-2) Inhibitors for Chemoprevention of Colorectal Cancer” (J Med Chem, 2021)", "key": {"[1]": {"biological_target": "T1, Prostaglandin G/H synthase 1 (Homo sapiens, UniProt P23219)", "T1 sequence (P23219 whole entry)": "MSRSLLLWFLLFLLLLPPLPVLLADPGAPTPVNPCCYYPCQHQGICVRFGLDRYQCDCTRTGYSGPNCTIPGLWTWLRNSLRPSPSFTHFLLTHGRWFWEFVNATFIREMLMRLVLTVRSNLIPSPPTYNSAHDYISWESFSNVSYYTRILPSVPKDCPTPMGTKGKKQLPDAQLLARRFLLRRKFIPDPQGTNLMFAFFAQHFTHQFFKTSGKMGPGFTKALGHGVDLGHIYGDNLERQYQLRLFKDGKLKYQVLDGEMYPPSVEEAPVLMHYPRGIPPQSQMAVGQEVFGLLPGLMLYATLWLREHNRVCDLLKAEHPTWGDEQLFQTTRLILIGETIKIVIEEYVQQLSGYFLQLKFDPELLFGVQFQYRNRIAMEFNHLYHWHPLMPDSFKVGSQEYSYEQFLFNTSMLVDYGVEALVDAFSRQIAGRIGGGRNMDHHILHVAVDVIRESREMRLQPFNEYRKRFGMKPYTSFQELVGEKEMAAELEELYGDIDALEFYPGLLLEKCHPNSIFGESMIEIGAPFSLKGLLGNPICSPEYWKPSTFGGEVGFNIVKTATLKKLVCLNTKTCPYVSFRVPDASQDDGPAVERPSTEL", "experiment": "Inhibition of human recombinant COX-1 assessed as reduction in peroxidase activity using arachidonic acid as substrate preincubated for 60 mins followed by substrate addition for 2 secs by ADPH based fluorometric analysis", "type": "ADME"}, "[2]": {"experiment": "Clearance in C57BL/6J mouse at 2 mg/kg, iv measured after 0.08 to 24 hrs", "type": "ADME, organism-based", "details": "in vivo, time 0.08-24 hrs"}, "[3]": {"experiment": "Half life in human hepatocytes", "type": "ADME, cell-based, Hepatocyte"}, "[4]": {"experiment": "Drug concentration in C57BL/6J mouse plasma at 10 mg/kg, po administered as cassette dose measured at 4 hrs by LC/MS/MS analysis", "type": "ADME, organism-based"}, "[5]": {"experiment": "Drug concentration in C57BL/6J mouse colon at 10 mg/kg, po administered as cassette dose measured at 4 hrs by LC/MS/MS analysis", "type": "ADME, organism-based", "details": "read-out: Ct"}, "[6]": {"experiment": "Drug concentration in C57BL/6J mouse portal vein plasma at 10 mg/kg, po administered as cassette dose measured at 4 hrs by LC/MS/MS analysis", "type": "ADME, organism-based"}, "[7]": {"biological_target": "T2, Prostaglandin G/H synthase 2 (Mus musculus, UniProt Q05769)", "T2 sequence (Q05769 whole entry)": "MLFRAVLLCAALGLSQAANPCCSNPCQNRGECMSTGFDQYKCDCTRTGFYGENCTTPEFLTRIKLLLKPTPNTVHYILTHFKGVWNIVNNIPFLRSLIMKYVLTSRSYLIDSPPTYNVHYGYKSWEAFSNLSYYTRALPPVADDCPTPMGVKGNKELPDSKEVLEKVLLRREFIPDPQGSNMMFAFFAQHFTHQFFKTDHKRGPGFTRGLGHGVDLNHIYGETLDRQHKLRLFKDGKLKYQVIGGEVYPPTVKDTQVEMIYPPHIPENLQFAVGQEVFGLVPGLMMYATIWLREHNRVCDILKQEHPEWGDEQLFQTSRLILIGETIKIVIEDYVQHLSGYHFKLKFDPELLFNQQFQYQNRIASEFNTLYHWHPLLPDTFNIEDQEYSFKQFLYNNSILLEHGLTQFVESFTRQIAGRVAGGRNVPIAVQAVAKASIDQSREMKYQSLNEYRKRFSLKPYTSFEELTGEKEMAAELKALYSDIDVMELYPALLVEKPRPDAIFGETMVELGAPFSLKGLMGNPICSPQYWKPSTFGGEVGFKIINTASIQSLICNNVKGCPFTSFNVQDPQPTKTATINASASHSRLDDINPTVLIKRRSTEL", "experiment": "In vivo inhibition of COX2 in po dosed C57BL/6J mouse model of spontaneous GI-tract tumor Apc-min assessed as chemopreventive effect by measuring reduction in polyp area and relevant ileum exposures", "type": "functional, organism-based"}, "[8]": {"experiment": "Oral bioavailability in C57BL/6J mouse at 10 mg/kg measured up to 24 hrs by LC-MS analysis", "type": "ADME, organism-based", "details": "in vivo"}, "[9]": {"system": "Mus musculus", "experiment": "Chemo-protective activity in po dosed C57BL/6J mouse model of spontaneous GI-tract tumor Apc-min assessed as reduction in 18F-FDG uptake in ileum incorporated into chow diet administered daily for 2 weeks and measured after 14 days by ex vivo PET imaging analysis", "type": "functional, organism-based"}, "[10]": {"biological_target": "T2, Prostaglandin G/H synthase 2", "experiment": "In vivo inhibition of COX2 in po dosed C57BL/6J mouse model of spontaneous GI-tract tumor Apc-min assessed as chemopreventive effect by measuring reduction in polyp area and relevant plasma exposures", "type": "functional, organism-based"}, "[11]": {"experiment": "Equilibrium solubility of compound in FASSIF at pH 6.5", "type": "physicochemical"}, "[12]": {"biological_target": "T3, Prostaglandin G/H synthase 2 (Homo sapiens, UniProt P35354)", "T3 sequence (P35354 whole entry)": "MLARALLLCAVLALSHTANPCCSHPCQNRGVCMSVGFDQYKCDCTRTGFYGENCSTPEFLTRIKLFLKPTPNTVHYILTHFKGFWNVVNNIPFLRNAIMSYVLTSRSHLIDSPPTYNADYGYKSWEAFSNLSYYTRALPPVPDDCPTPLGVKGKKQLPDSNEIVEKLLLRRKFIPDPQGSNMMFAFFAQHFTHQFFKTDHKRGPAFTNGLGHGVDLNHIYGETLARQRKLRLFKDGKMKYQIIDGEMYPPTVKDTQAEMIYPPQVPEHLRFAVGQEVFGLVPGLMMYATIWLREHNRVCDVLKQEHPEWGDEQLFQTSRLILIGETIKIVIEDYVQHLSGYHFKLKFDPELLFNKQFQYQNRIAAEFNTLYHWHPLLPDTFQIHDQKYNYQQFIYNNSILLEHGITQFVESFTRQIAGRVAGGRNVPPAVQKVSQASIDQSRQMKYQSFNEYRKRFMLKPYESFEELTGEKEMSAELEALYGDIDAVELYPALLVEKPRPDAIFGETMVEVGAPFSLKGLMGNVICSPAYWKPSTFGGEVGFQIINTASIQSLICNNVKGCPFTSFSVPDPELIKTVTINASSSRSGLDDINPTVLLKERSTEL", "experiment": "Inhibition of human recombinant COX-2 assessed as reduction in peroxidase activity using arachidonic acid as substrate preincubated for 60 mins followed by substrate addition for 2 secs by ADPH based fluorometric analysis"}, "[13]": {"system": "Mus musculus", "experiment": "Chemo-protective activity in C57BL/6J mouse model of spontaneous GI-tract tumor Apc-min assessed as 18F-FDG uptake in ileum at 300 mg/kg, po incorporated into chow diet administered daily for 2 weeks and measured after 14 days by ex vivo PET imaging analysis relative to control", "type": "functional"}, "[14]": {"system": "Mus musculus", "experiment": "Antitumor activity in C57BL/6J mouse model of spontaneous GI-tract tumor Apc-min assessed as reduction in total ileum polyp number at 30 to 300 mg/kg, po administered as suspension for 10 weeks", "type": "functional, organism-based", "details": "dose 30-300 mg/kg"}, "[15]": {"experiment": "Oral bioavailability in dog at 10 mg/kg measured up to 24 hrs by LC-MS analysis", "type": "ADME, organism-based, Canis lupus familiaris", "details": "in vivo"}, "[16]": {"experiment": "Ratio of drug concentration in C57BL/6J mouse colon to plasma at 10 mg/kg, po measured after 4 hr by liquid chromatographic triple-quadrupole mass spectrometric method", "type": "ADME, organism-based", "details": "C57BL/6J, colon / plasma"}, "[17]": {"biological_target": "T1, Prostaglandin G/H synthase 1", "experiment": "Inhibition of COX1 in human whole blood assessed as reduction in calcium ionophore-stimulated TXB2 production incubated for 1 hr by ELISA", "type": "tissue-based"}, "[18]": {"biological_target": "T3, Prostaglandin G/H synthase 2", "experiment": "Inhibition of COX2 in human whole blood assessed as reduction in LPS stimulated PGE2 production incubated for 1 hr by ELISA", "type": "tissue-based"}, "[19]": {"experiment": "in vivo", "details": "C57BL/6J, mouse, colon / portal vein plasma, po, 10 mg/kg", "description": "Ratio of drug concentration in C57BL/6J mouse colon to portal vein plasma at 10 mg/kg, po measured after 4 hr by liquid chromatographic triple-quadrupole mass spectrometric method"}, "[20]": {"experiment": "Half life in human liver microsomes", "type": "ADME, Microsome"}, "[21]": {"biological_target": "T3, Prostaglandin G/H synthase 2", "experiment": "Inhibition of COX2 (unknown origin) expressed in HEK293 TRex cells assessed as reduction in PGE2 production using arachidonic acid as substrate preincubated for 60 mins followed by substrate addition for 1 hr in presence of 10% FBS by RapidFire High-Throughput Mass Spectrometry", "type": "cell-based, HEK293-T-REx"}, "[22]": {"system": "Mus musculus", "experiment": "Antitumor activity in po dosed C57BL/6J mouse model of spontaneous GI-tract tumor Apc-min assessed as reduction in total ileum polyp area administered as suspension for 10 to 12 weeks", "type": "functional, organism-based", "details": "time 10-12 weeks"}}, "note": "The source made the active and inactive calls. The calls are words filed in the database; no cut-off is given here."}
{"smiles": "CCCOc1nc(OCC(C)(C)O)c(-c2ccc(S(C)(=O)=O)cc2)cc1CO", "values": [{"measurement": "IC50", "setting": "[1]", "result": "> 50000", "unit": "nM"}, {"measurement": "clearance", "setting": "[2]", "result": 92.7, "unit": "mL/min/kg"}, {"measurement": "half-life", "setting": "[3]", "result": 3.1, "unit": "min"}, {"measurement": "concentration at 4 h", "setting": "[4]", "result": 5.7, "unit": "ng/mL"}, {"measurement": "concentration at 4 h", "setting": "[5]", "result": 5340, "unit": "ng/g"}, {"measurement": "concentration at 4 h", "setting": "[6]", "result": 98.6, "unit": "ng/mL"}, {"measurement": "IC50", "setting": "[7]", "result": 2380, "unit": "nM"}, {"measurement": "bioavailability", "setting": "[8]", "result": 4.25, "unit": "%"}, {"measurement": "Activity", "setting": "[9]", "result": "Active"}, {"measurement": "IC50", "setting": "[10]", "result": 35, "unit": "nM"}, {"measurement": "solubility thermodynamic", "setting": "[11]", "result": 25, "unit": "µM"}, {"measurement": "IC50", "setting": "[12]", "result": 840, "unit": "nM"}, {"measurement": "Activity", "setting": "[13]", "result": 35.6, "unit": "%"}, {"measurement": "Activity", "setting": "[14]", "result": "Active"}, {"measurement": "bioavailability", "setting": "[15]", "result": 79.5, "unit": "%"}, {"measurement": "Kp at 4 h", "setting": "[16]", "result": 1280}, {"measurement": "IC50", "setting": "[17]", "result": 193000, "unit": "nM"}, {"measurement": "IC50", "setting": "[18]", "result": 2340, "unit": "nM"}, {"measurement": "Kp at 4 h", "setting": "[19]", "result": 38}, {"measurement": "half-life", "setting": "[20]", "result": "> 184", "unit": "min"}, {"measurement": "IC50", "setting": "[21]", "result": 600, "unit": "nM"}, {"measurement": "Activity", "setting": "[22]", "result": "Dose-Dependent Effect"}]}
